What was measured:
IgE-DNP-sensitized mice = assay: IgE-induced systemic anaphylaxis in vivo; details: intravenously (50 ng/ml) overnight before DNP-BSA challenge; FIG. 6
Description: FIG. 6. […] Mice (3-5 per group; n=2 separate experiments) were sensitized with or without (Δ) DNP-IgE overnight. The mice were then given vehicle alone (▪) or fullerenes (▾=Poly C60; ●=N-ethyl C60) intravenously (50 ng/ml) overnight. The next morning the animals were challenged with DNP-BSA (100 μg/ml) and the core body temperature measured for up to 30 minutes. Serum histamine levels were measured by ELISA. A, data represented with line graphs; B, data represented with bar graphs.
Systemic anaphylaxis is predominately driven by the activation of MC and PBB through IgE-FceRI crosslinking (45;61). […] Thus, we hypothesized that they could inhibit MC and PBB-induced anaphylaxis in vivo using IgE-sensitized mice. […] In addition, there was a significant reduction in serum histamine levels with the fullerene preincubation.
To test inhibition of mouse anaphylaxis, mice are injected intraperitoneally (IP) with 50 μg of DNP-specific IgE. After approximately 4 to 6 hours the mice (triplicate) are injected with or without different concentrations of fullerenes. The next day cells are injected IP with DNP-HSA (100 μg, Sigma-Aldrich). […] After 30 minutes, mice are sacrificed, and cardiac puncture is used to obtain plasma, from which histamine and other mediators are measured by ELISA. […]

skin MC [1] = assay: Cellular localization by immunohistochemistry with anti-C60 fullerene Ab; type: cell-based, human; details: 4 hours incubation; Polyhydroxy C60 10 ng/ml, N-ethyl-polyamino C60 0.1 μg/ml; FIG. 4
Description: Skin MC (a-d) or PBB (e, f) were incubated with Polyhydroxy C60 (10 ng/ml; a, b, c, f) or N-ethyl-polyamino C60 (0.1 μg/ml; d, f) for 4 hours, washed and cytocentrifuged onto slides. The cytocentrifuge preparations were incubated with anti-C60 fullerene Abs (c, d, e, f) or with an isotype-matched control (a, b) overnight. The cytospins were washed and incubated with a 1:50 dilution of peroxidase-conjugated, anti-mouse Abs and developed with AEC as described. Photographs a and b are the same field taken under phase-contrast (a) or light (b) at a magification of 400×. Pictures c-f were taken under light at a magification of 1000×.
To access the cellular localization if the fullerenes within human MC, these cells were incubated with the water soluble fullerenes and immunohistochemistry was assessed using a fullerene-specific antibody Ab (59;60).

skin MC [2] = tested on: skin MC
Description: (§3) A bar graph illustrating the effects of fullerenes on skin MC and PBB viability Cells were cultured with (poly; white bars, N-ethyl; striped bars) or without (black bars) fullerenes (10 mg/ml) for the indicated times. Cells were washed and viability assessed by trypan blue exclusion. Results are representative of 3 experiments from different donors.
(§4) The effects of water soluble fullerene derivatives (Poly; polyhydroxy C60 and N-ethyl; N-ethyl-polyamino C60) on cell growth and viability were tested. Cells were incubated for up to 72 hours and total cell numbers were assessed along with trypan blue exclusion.

PBB [3] = assay: Cellular ROS levels after antigen challenge (DCF dye, FACS); type: cell-based, human; details: preincubation, then NIP-BSA 100 ng/ml for 30 min; FIG. 5
Description: (§1) Skin MC (grey) or PBB (white) were sensitized overnight with anti-NIP-IgE (1 μg/ml). Cells were activated for 30 min with NIP-BSA (100 ng/ml) with or without preincubation with the indicated concentrations of fullerenes or N-acetyl-L-cysteine (NAC; 10 μmol). Cellular ROS levels were detected by incubating the cells in the ROS indicating dye 5-(and-6)-carboxy-2′,7′-dichlorodihydrofluorescein diacetate (DCF) followed by FACS analysis. The results are representative of 3 separate MC or PBB cultures. The * or # indicates statistically significant changes in ROS levels for MC and PBB, respectively (p<0.05). A, polyhydroxy C60 fullerenes; B, N-ethyl-polyamine C60 fullerenes.
(§2) To investigate the mechanism by which these fullerenes inhibit allergic mediator release from skin MC and PBB, the effect these compounds have on ROS levels within the cell after antigen stimulation was tested.

skin MC [4] = assay: as above; type: cell-based, human; details: preincubation, then NIP-BSA 100 ng/ml for 30 min; FIG. 5
Description: as §1, §2

PBB [5] = tested on: PBB
Description: as §3, §4

| Substance | IgE-induced anaphylaxis (IgE-DNP-sensitized mice) | cellular localization of fullerenes (skin MC [1]) | total cell numbers (skin MC [2]) | cellular ROS levels (PBB [3]) | cellular ROS levels (skin MC [4]) | total cell numbers (PBB [5]) |
| --- | --- | --- | --- | --- | --- | --- |
| N-ethyl-polyamino C60 | inhibit IgE-induced anaphylaxis | localize within the cytoplasm of MC | None of the fullerenes demonstrated a significant affect | inhibit ROS production | inhibit ROS production | None of the fullerenes demonstrated a significant affect |
| polyhydroxy C60 | inhibit IgE-induced anaphylaxis | localize within the cytoplasm of MC | None of the fullerenes demonstrated a significant affect | inhibit ROS production | inhibit ROS production | None of the fullerenes demonstrated a significant affect |
